Source: PMC3602187, “From Design to Screening: A New Antimicrobial Peptide Discovery Pipeline” (PLoS ONE, 2013)

tested on: Listeria innocua 33090; assay: colony overlay assay of peptide-secreting E. coli clones (library screening and re-test); format: cell-based; design: key: higher activity group (H); equal activity group (E); lower activity group (L); details: library screening; selected colonies pooled by zone size; peptides identified by 454 sequencing, full-length sequences with minimum 20 reads
Protocol: For the in vivo production of AMPs, we have employed an E. coli expression system that relies on periplasmic-expression of recombinant peptides in a host cell that lacks the lpo membrane protein, thus releasing the peptides present in the periplasmic space outside the cells. When the producer cells are grown into colonies on a solid substrate, it leads to accumulation of the recombinant peptides around the colony and allows for easy library screening. The screening assay used in this study was a modified version of the standard agar diffusion method as previously described. Library-transformed E. coli colonies are overlaid with a tester strain and incubated overnight to allow for peptide expression and tester strain growth. Next day, the plates are inspected for the formation of clear growth inhibition zones around E. coli colonies, which is an indication of active AMP production by the host colony.
For the construction of Pln-423 mutant library in E. coli, the expression system that consists of a periplasmic-leaky E. coli strain JE5505 and the expression plasmid pFLAG-CTS was employed for direct screening of peptide activities. It should be noted here that this plasmid contains ompA secretion signal sequence and cleavage of this sequence results in a serine residue at the N-terminal of all mature peptides. A total of 1.0×10^5 colonies, approximately 8-fold coverage of the library, were screened against Listeria innocua 33090 in five separate screening experiments. L. innocua was previously deemed as a suitable indicator for pathogenic L. monocytogenes displaying similar bacteriocin sensitivity, therefore it was used as a surrogate strain throughout this study. The selection process involved two criteria; 1) the size of the each inhibition zone was compared to that of wild-type Pln-423 as a correlation to anti-listerial activity level, 2) when several colonies formed inhibition zones that are very similar in size and character, only a few from each group were selected. The colonies were pooled into three groups based on their activities, giving 43 clones in a higher activity group (H), 81 clones in an equal activity group (E), and 241 clones in a lower activity group (L). Their plasmids were extracted from each activity group and analyzed by both Sanger and 454 high-throughput sequencing to identify peptide sequences.
These clones were also re-tested by colony overlay assay to compare their activities to wild-type Pln-423 based on the size of the inhibition zone around each clone (Figure 2-A). Based on this assay, all ten plantaricin mutants formed larger inhibition zones (10.3±0.5 to 11.4±0.3 mm zone diameter) compared to wild-type Pln-423 (6.2±0.2 mm) against L. innocua 33090. Out of those ten, three clones have a single mutation and […] clones have two mutations and the remaining single clone has three mutations. […] Positions like Ser23, Ser27, His28, and Lys36 were commonly mutated with similar amino acids indicating their potential role on higher peptide activity.
The screening method used in this study was a modified version of the standard colony overlay method as previously described. All the chemicals and growth media supplements were obtained from either Sigma-Aldrich or Fisher Scientific unless otherwise stated. Transformed E. coli JE5505 cells were diluted to 3000–5000 cfu (determined empirically prior to screening by plating serial dilutions of E. coli suspensions of a known absorbance and counting the colonies after incubation) in 25 ml LB soft agar (0.8%, 45°C) per screening plate and poured into 150 mm petri dishes. Once the media was solidified, they were overlaid with 10 ml LB soft agar (45°C) and incubated at 37°C for 24 h for host-colony formation. Next day, these plates were re-overlaid with 10 ml TSB soft agar containing 1 mM IPTG and the indicator strain Listeria innocua ATCC 33090 (diluted to OD600 = 0.03). […]

Substance | activity group by size of inhibition zone compared to wild-type Pln-423
KYYGNGVTCGKHSCRVNWAQAFSCTVSHLANFGHGKC* [GROUP L-UM-2] | L
KYYGNGVTCGKHSCSVNWGQAFSCSVMHLANFGHGKC* [GROUP L-UM-16] | L
KYYGNGVTCGKHSCSVNWGPAFSCSVSRLANFGHGKC* [Pep-2_6528] | L
KYYGNGVTCGKHSCSVNWGHAFSCSVSHLANFGHGHC* [Pep-2_11707] | L
KYYGNGVTCGKHSCSVNWGQAFSCSVEHLANFGHIKC* [Pep-2_6070] | L
KYYGNGVTCGKHSCSVNWGQAFSCSVSHLANFGHAKC* [Pep-1_107] | L
KYYGNGVTCGKHSCSVNYGQAFSCSVSHLANFGHGAC* [Pep-2_335] | E
KYYGNGVTCGKHSCSVNWGQAFSCSVSHLANFGHGLC* [Pep-1_112] | L
KYYGNGVTCGKHSCSVNWAQAFSCSVVHLANFGHGKC* [Pep-2_6197] | L
KYYGNGVTCGKHSCSVNWGLAFSCSVSNLANFGHGKC* [Pep-2_6742] | L
KYYGNGVTCGKHSCSVNWGDAFSCSVAHLANFGHGKC* [Pep-2_1487] | L
KYYGNGVTCGKHSCSVNWGQAFSCRVEHLANFGHGKC* [Pep-2_6013] | L
KYYGNGVTCGKHSCSVNWGQAGSCSVSRLANFGHGKC* [Pep-2_6539] | H
KYYGNGVTCGKHSCSVNWGQAFSCSVAELANFGHGKC* [Pep-2_6350] | H
KYYGNGVTCGKHSCSVNWGQAFKCSVSLLANFGHGKC* [Pep-2_3328] | L
KYYGNGVTCGKHSCSVNWGQAVSCSVHHLANFGHGKC* [GROUP E-UM-6] | E
KYYGNGVTCGKHSCSVNWGKAFSCGVSHLANFGHGKC* [Pep-2_1367] | L
KYYGNGVTCGKHSCSVNWGQAFSCSVSRVANFGHGKC* [Pep-2_6574] | L
KYYGNGVTCGKHSCSVNWGQAFSCWVSHLANFGHGKC* [GROUP L-UM-15] | L
KYYGNGVTCGKHSCSVNWGQAFSCSVSHLANFGHGEC* [Pep-1_110] | H
KYYGNGVTCGKHSCSVNWGQAFSCSVVHLANFGHGKC* [Pep-1_58] | L and E
KYYGNGVTCGKHSCSVNWGQAFKCSVIHLANFGHGKC* [Pep-2_3322] | L
KYYGNGVTCGKHSCSVNWGQAFSCSIHHLANFGHGKC* [Pep-2_5914] | L
KYYGNGVTCGKHSCSVNWGQAFACSVSHLANFGHGHC* [Pep-2_11729] | L
KYYGNGVTCGKHSCSVNWGQAFSCVVRHLANFGHGKC* [Pep-2_4939] | L
KYYGNGVTCGKHSCSVNWGQAFSCSVEHLANFGHGHC* [Pep-2_6073] | E
KYYGNGVTCGKHSCSVNWGQAFSCVWSHLANFGHGKC* [Pep-2_4938] | L
KYYGNGVTCGKHSCSVNWGTAFSCSVSYLANFGHGKC* [GROUP L-UM-14] | L
